The values that follow come from article PMC2228184 (British Journal of Cancer, 1997).

Read-outs that look alike come from different tables or passages of the source.

Data set [1] deals with patients with advanced solid tumours. The conditions noted are these: human, in vivo. The text has this:
(§1) Topoisomerases are essential nuclear enzymes that alter the topology of DNA during DNA metabolism by cleavage of DNA strands, strand passage and religation (Wang, 1985). Two major topoisomerases, types I and H, have been identified in all mammalian cells, and induce single- and double-strand breaks respectively. […] They have different sites of binding DNA and play a different role in the cell cycle. Received 15 November 1996 Revised 19 February 1997 Accepted 10April 1997 Correspondence to: VMM Herben, Slotervaart Hospital, Department of Pharmacy and Pharmacology, Louwesweg 6, 1066 EC Amsterdam, The Netherlands Topotecan (Hycamtin), a semisynthetic water-soluble derivative of camptothecin, was the first topoisomerase I-targeting drug to undergo clinical testing since the discontinuation of the clinical development of sodium camptothecin in the early 1970s. […] In view of topotecan's unique mechanism of action and important anti-tumour effects as single agent, recent studies have focused on combination therapies with other effective anti- cancer agents. The combination of topoisomerase I inhibitors with topoiso- merase II poisons is in theory an attractive strategy. As resistance to inhibition of one class of topoisomerase enzymes is accompa- nied with an elevated sensitivity to the other class of topoiso- merase inhibitors in vitro (Tan et al, 1989; Sugimoto et al, 1990), a combined administration regimen of inhibitors of both topoiso- merases could effectively kill tumour cells. […] The recommended dose for this schedule is 1.5 mg m-2 day-1 (Rowinsky et al, 1991; Verweij et al, 1993). […] Other eligibility criteria included a Zubrod-ECOG-WHO performance status < 2, anticipated life expectancy of 2 3 months and age 2 18 years. Previous anti-cancer chemotherapy had to be discontinued for at least 4 weeks before entry into the study or 6 weeks in cases of pretreatment with a nitrosourea or mitomycin C. All patients had acceptable bone marrow function white blood cell (WBC) ? […]

Data set [2] is described as follows: Pharmacokinetics of N-desmethyltopotecan after 30-min infusion of topotecan. Type of data set: in vivo, human.
Source text: as §1

Details of data set [3]: method as in Johnson and Wood, personal communication. To be noted: ref Johnson and Wood, personal communication; cited from earlier work.
Data set [4] can be described thus: Plasma pharmacokinetics of etoposide after oral administration (HPLC). The conditions noted are these: human. The text has this: Topoisomerases are essential nuclear enzymes that alter the topology of DNA during DNA metabolism by cleavage of DNA strands, strand passage and religation (Wang, 1985). Two major topoisomerases, types I and H, have been identified in all mammalian cells, and induce single- and double-strand breaks respectively. […] They have different sites of binding DNA and play a different role in the cell cycle. Received 15 November 1996 Revised 19 February 1997 Accepted 10April 1997 Correspondence to: VMM Herben, Slotervaart Hospital, Department of Pharmacy and Pharmacology, Louwesweg 6, 1066 EC Amsterdam, The Netherlands Topotecan (Hycamtin), a semisynthetic water-soluble derivative of camptothecin, was the first topoisomerase I-targeting drug to undergo clinical testing since the discontinuation of the clinical development of sodium camptothecin in the early 1970s. […] In view of topotecan's unique mechanism of action and important anti-tumour effects as single agent, recent studies have focused on combination therapies with other effective anti- cancer agents. The combination of topoisomerase I inhibitors with topoiso- merase II poisons is in theory an attractive strategy. As resistance to inhibition of one class of topoisomerase enzymes is accompa- nied with an elevated sensitivity to the other class of topoiso- merase inhibitors in vitro (Tan et al, 1989; Sugimoto et al, 1990), a combined administration regimen of inhibitors of both topoiso- merases could effectively kill tumour cells. […] The recommended dose for this schedule is 1.5 mg m-2 day-1 (Rowinsky et al, 1991; Verweij et al, 1993). […] Other eligibility criteria included a Zubrod-ECOG-WHO performance status < 2, anticipated life expectancy of 2 3 months and age 2 18 years. Previous anti-cancer chemotherapy had to be discontinued for at least 4 weeks before entry into the study or 6 weeks in cases of pretreatment with a nitrosourea or mitomycin C. All patients had acceptable bone marrow function white blood cell (WBC) ? […] The study protocol was approved by the Medical Ethics Committee of the hospital, and all patients gave written informed consent. Treatment plan and study design Topotecan (SmithKline Beecham Pharmaceuticals, King of Prussia, PA, USA) was supplied by the National Cancer Institute as a lyophilized light yellow powder in vials containing 5 mg of topotecan (as the free base), 60 mg of mannitol, 25 mg of tartaric acid and 2 M hydrochloric acid and/or 0.05 M sodium hydroxide for pH adjustment to 3.0. The content of each vial was reconsti- tuted with 2 ml of sterile water for injection, USP, yielding a 2.5 mg ml-1 solution of topotecan. The appropriate dosage of the drug was diluted in 50 or 100 ml of 0.9% sodium chloride and was administered intravenously over 30 min by a syringe pump. […]

The subject of data set [5] is patients with advanced solid tumours. The conditions noted are these: both, human, in vivo.
Experimental: 0.3 h. […] 2.7 1 h-1 m-2 with a steady-state volume of distribution of 36.7 ? 6.2 I m-2. […] 1.0 h after infusion. […] 0.54 and 1.23 ? […] 1.2 and 2.3 ? 1.0 h after ingestion of 20 and 40 mg respectively. […] Other eligibility criteria included a Zubrod-ECOG-WHO performance status < 2, anticipated life expectancy of 2 3 months and age 2 18 years. Previous anti-cancer chemotherapy had to be discontinued for at least 4 weeks before entry into the study or 6 weeks in cases of pretreatment with a nitrosourea or mitomycin C. All patients had acceptable bone marrow function white blood cell (WBC) ? 4 x 10^9 1-1 and platelets 2 100 x 109 11; normal hepatic function, serum bilirubin < 1.5 mg dl-' (25 pmol 1-1) and other liver function tests < twice the normal upper limit or < five times when related to liver metastases, prothrombin or thrombotest within normal limits; normal renal function, serum creatinine < 1.4 mg dl-1 (120 gmol 1-1). The study protocol was approved by the Medical Ethics Committee of the hospital, and all patients gave written informed consent. Treatment plan and study design Topotecan (SmithKline Beecham Pharmaceuticals, King of Prussia, PA, USA) was supplied by the National Cancer Institute as a lyophilized light yellow powder in vials containing 5 mg of topotecan (as the free base), 60 mg of mannitol, 25 mg of tartaric acid and 2 M hydrochloric acid and/or 0.05 M sodium hydroxide for pH adjustment to 3.0. The content of each vial was reconsti- tuted with 2 ml of sterile water for injection, USP, yielding a 2.5 mg ml-1 solution of topotecan. The appropriate dosage of the drug was diluted in 50 or 100 ml of 0.9% sodium chloride and was administered intravenously over 30 min by a syringe pump.
For data set [6] the following is noted: ref Clark et al, 1989; cited from earlier work.
Data set [7] in a line: clinical. The conditions noted are these: human, in vivo. The text has this:
Topoisomerases are essential nuclear enzymes that alter the topology of DNA during DNA metabolism by cleavage of DNA strands, strand passage and religation (Wang, 1985). Two major topoisomerases, types I and H, have been identified in all mammalian cells, and induce single- and double-strand breaks respectively. […] They have different sites of binding DNA and play a different role in the cell cycle. Received 15 November 1996 Revised 19 February 1997 Accepted 10April 1997 Correspondence to: VMM Herben, Slotervaart Hospital, Department of Pharmacy and Pharmacology, Louwesweg 6, 1066 EC Amsterdam, The Netherlands Topotecan (Hycamtin), a semisynthetic water-soluble derivative of camptothecin, was the first topoisomerase I-targeting drug to undergo clinical testing since the discontinuation of the clinical development of sodium camptothecin in the early 1970s. […] In view of topotecan's unique mechanism of action and important anti-tumour effects as single agent, recent studies have focused on combination therapies with other effective anti- cancer agents. The combination of topoisomerase I inhibitors with topoiso- merase II poisons is in theory an attractive strategy. As resistance to inhibition of one class of topoisomerase enzymes is accompa- nied with an elevated sensitivity to the other class of topoiso- merase inhibitors in vitro (Tan et al, 1989; Sugimoto et al, 1990), a combined administration regimen of inhibitors of both topoiso- merases could effectively kill tumour cells. […] The recommended dose for this schedule is 1.5 mg m-2 day-1 (Rowinsky et al, 1991; Verweij et al, 1993). […] Other eligibility criteria included a Zubrod-ECOG-WHO performance status < 2, anticipated life expectancy of 2 3 months and age 2 18 years. Previous anti-cancer chemotherapy had to be discontinued for at least 4 weeks before entry into the study or 6 weeks in cases of pretreatment with a nitrosourea or mitomycin C. All patients had acceptable bone marrow function white blood cell (WBC) ? […] The study protocol was approved by the Medical Ethics Committee of the hospital, and all patients gave written informed consent. Treatment plan and study design Topotecan (SmithKline Beecham Pharmaceuticals, King of Prussia, PA, USA) was supplied by the National Cancer Institute as a lyophilized light yellow powder in vials containing 5 mg of topotecan (as the free base), 60 mg of mannitol, 25 mg of tartaric acid and 2 M hydrochloric acid and/or 0.05 M sodium hydroxide for pH adjustment to 3.0. The content of each vial was reconsti- tuted with 2 ml of sterile water for injection, USP, yielding a 2.5 mg ml-1 solution of topotecan. The appropriate dosage of the drug was diluted in 50 or 100 ml of 0.9% sodium chloride and was administered intravenously over 30 min by a syringe pump. […] The regimen was intended to be repeated every 4 weeks. This could be changed during the study to either shorter or longer intervals depending on bone marrow recovery. Doses were escalated in an alternating way according to the scheme in Table 1. […] Treatment cycles were to be repeated at 3-week intervals. Patients were scheduled to receive at least two courses.

For data set [8], the system named is patients. The conditions noted are these: cited from earlier work.

In the case of `CC[C@@]1(O)C(=O)OCc2c1cc1n(c2=O)Cc2cc3c(CNC)c(O)ccc3nc2-1` [N-desmethyltopotecan], the “relation of AUC(t) to myelosuppression” value in data set [1] is reported as “not related”. In data set [2] (24 to 48 hours after the fifth daily infusion, four patients), the “additional excretion in the urine as the metabolite” value was 0.4%. Also, in data set [2] (all dose levels), the “metabolite-to-topotecan ratio of maximal plasma levels” value is reported as 0.5%. Besides, the “metabolite-to-topotecan AUC(t) ratio” value in data set [2] (all dose levels, up to 6 h post-infusion) is recorded as 0.012. Besides, the “anti-tumour activity compared with the parent compound” value in data set [3] was “slightly less anti-tumour activity”.
For `COc1cc([C@@H]2c3cc4c(cc3[C@@H](O[C@@H]3O[C@@H]5CO[C@@H](C)O[C@H]5[C@H](O)[C@H]3O)[C@H]3COC(=O)[C@H]23)OCO4)cc(OC)c1O` [etoposide], in data set [4] (20 mg), the Cmax came to 750 ± 540 nM and the Tmax was determined as 2.4 ± 1.2 h. In data set [4] (40 mg), the Cmax came to 1230 ± 570 nM and the time to peak (Tmax) is 2.3 ± 1 h. Besides, the “recommended dose for phase II clinical trials” value in data set [5] is reported as 40 mg bid. The “correlation of pharmacokinetics (AUC, Cmax) or total dose with haematological toxicity” value in data set [1] is “did not yield any significant relationship”. For the same molecule, in data set [6], the “peak plasma concentrations associated with significant toxicity” value is given as “above 17 μmol l-1”.
On to `CC[C@@]1(O)C(=O)OCc2c1cc1n(c2=O)Cc2cc3c(CN(C)C)c(O)ccc3nc2-1` [topotecan], for which, in data set [5], the “dose that could be given in combination, % of the single-agent dosage” value is 67-83% and the “recommended dose for phase II clinical trials” value was determined as 1.0 mg m-2. The “dose associated with a 50% decrease in ANC (D50)” value in data set [1] (both) was 0.6 mg m-2 day-1. For the same molecule, in data set [7] (both, iv), the half-life was 2.1 ± 0.3 h. In addition, the alpha half-life in data set [7] is 3.8 ? 3.2 min. Also, in data set [7] (0.5 mg), the CL is reported as 14.9 ? 1.8 l h-1 m-2, the Vss was 34.0 ? 2.6 l m-2 and the t1/2 is on record as 1.9 ? 0.1 h. Moreover, in data set [7] (1 mg), the CL is 13.4?2.6 l h-1 m-2, the Vss was 36.4?5.2 l m-2 and the t1/2 is reported as 2.2?0.3 h. For the same molecule, in data set [7] (1.25 mg), the CL is reported as 15.6 ? 4.0 l h-1 m-2 and the Vss is on record as 33.7 ? 6.7 l m-2. Also, in data set [7] (24 h), the “percentage of the administered dose recovered in the urine” value is 41 ? 10% and the “percentage of the administered dose recovered in the urine, range” value was 25-7 1. Also, the “terminal (beta) half-life” value in data set [7] (iv) was 2.1 ? 0.3 h. Also, the “recommended dose, single agent” value in data set [8] (30-min daily times five infusion every 3 weeks, ref Rowinsky et al, 1991, Verweij et al, 1993) is 1.5 mg m-2 day-1. Moreover, the “AUC50 (AUC associated with 50% decrease in ANC)” value in data set [8] (preceding single-agent phase I trial, Figure 2, ref Van Warmerdam et al, 1995) was 79.2 h/nmol/L. The “recommended dose, single agent” value in data set [8] (previously treated patients, ref Saltz et al (1993)) is 1.25 mg m-2 daily. In addition, the “recommended dose, single agent” value in data set [8] (previously untreated patients, ref Saltz et al (1993)) is 1.5 mg m-2 daily. For the same molecule, the “courses resulting in grades III or IV leucocytopenia and neutropenia” value in data set [8] (single agent 1.5 mg m-2 day-1, ref Rowinsky et al, 1991, Verweij et al, 1993) is “approximately 75%”.
